The text below walks through data of patent US9556148B2, “N-cyanomethylamides as inhibitors of janus kinase” (CADILA HEALTHCARE LIMITED, priority 2013, dated 2017).

One may read the IC50 as the point on the concentration scale where inhibition reaches its midpoint.

Holding throughout (type): biochemical
The target of assay [1] is recombinant purified human JAK3 (Homo sapiens (Human), UniProt P52333). Kind of assay: in vitro JAK kinase assay on ADP Glo platform, JAK3. The conditions noted are these: 50 μM ATP, 1 hr at room temperature; read-out: JAK-3 IC50. As to the method: (§1) NCEs were screened using in vitro JAK (1, 2 and 3) kinase assay on ADP Glo platform (Promega). Fixed amount of recombinant purified human JAK (25 ng of JAK1 and 10 ng of JAK2 and JAK3 per reaction, from Life Technologies Ltd) were incubated with increasing concentration of NCEs in 1× kinase reaction buffer (40 mM Tris-Cl, pH7.5, 20 mM MgCl2, 0.1 mg/ml BSA and 50 μM DTT). Enzymatic reaction was initiated by adding a substrate cocktail containing 50 μM of ATP (final concentration) and 5 μg for JAK1 and 2.5 μg for JAK2 and JAK3 of polyGln4Tyr1 (Signal Chem) in total 25 μl of reaction in 96 well plate. The reaction was incubated at room temperature for 1 hr.
Sequence of recombinant purified human JAK3 (P52333 whole entry): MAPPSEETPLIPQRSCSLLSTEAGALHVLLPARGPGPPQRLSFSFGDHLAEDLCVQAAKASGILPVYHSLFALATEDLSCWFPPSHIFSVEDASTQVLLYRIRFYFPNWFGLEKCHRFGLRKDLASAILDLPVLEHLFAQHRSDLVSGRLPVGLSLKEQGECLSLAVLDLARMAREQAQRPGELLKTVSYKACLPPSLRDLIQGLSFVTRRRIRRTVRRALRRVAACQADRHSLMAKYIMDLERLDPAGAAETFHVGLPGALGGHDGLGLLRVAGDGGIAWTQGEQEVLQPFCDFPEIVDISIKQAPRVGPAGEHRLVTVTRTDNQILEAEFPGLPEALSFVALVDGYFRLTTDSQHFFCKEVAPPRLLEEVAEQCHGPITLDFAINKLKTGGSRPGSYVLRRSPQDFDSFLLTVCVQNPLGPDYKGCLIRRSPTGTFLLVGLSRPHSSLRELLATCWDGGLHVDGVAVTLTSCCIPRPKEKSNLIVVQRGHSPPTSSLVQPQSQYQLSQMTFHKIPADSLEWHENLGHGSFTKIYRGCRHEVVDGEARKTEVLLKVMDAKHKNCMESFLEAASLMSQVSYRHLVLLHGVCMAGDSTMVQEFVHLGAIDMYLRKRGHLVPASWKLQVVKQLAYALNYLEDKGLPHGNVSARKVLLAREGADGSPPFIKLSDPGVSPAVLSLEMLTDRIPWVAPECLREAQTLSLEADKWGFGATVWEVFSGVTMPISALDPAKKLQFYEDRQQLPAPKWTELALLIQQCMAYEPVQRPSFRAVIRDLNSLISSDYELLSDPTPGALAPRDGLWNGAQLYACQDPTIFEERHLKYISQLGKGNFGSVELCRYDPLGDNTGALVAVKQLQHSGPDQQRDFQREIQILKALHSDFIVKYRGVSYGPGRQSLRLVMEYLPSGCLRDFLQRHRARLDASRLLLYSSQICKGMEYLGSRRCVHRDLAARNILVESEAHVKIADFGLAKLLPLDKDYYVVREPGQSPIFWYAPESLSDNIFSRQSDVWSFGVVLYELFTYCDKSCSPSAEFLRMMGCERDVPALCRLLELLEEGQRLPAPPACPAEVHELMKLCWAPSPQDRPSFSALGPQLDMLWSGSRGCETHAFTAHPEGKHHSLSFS
(§2) After 1 hr of incubation equal volume (25 μl per reaction) of ADP Glo was added and incubated at room temperature for 40 min.
(§3) This was followed by addition of kinase detection reagent (50 μl per reaction) and incubation at room temperature for 30 min. Finally, plate was read for luminescence at an integration time of 500 millisecond per well.
(§4) Data were plotted taking Enzyme with no inhibitor set as the 100% kinase activity. IC50 values were calculated using Graph Pad Prism software.

The target in assay [2] is recombinant purified human JAK1 (Homo sapiens (Human), UniProt P23458). Description: in vitro JAK kinase assay on ADP Glo platform, JAK1. The conditions noted are these: 50 μM ATP, 1 hr at room temperature. As to the method:
as §1, §2, §3, §4
On the technique in general: In ADP-Glo the light output rises with the ADP produced.

Assay [3] addresses recombinant purified human JAK2 (Homo sapiens (Human), UniProt O60674). Kind of assay: in vitro JAK kinase assay on ADP Glo platform, JAK2. The conditions noted are these: 50 μM ATP, 1 hr at room temperature; read-out: JAK-2 IC50. On the procedure:
as §1, §2, §3, §4

Sequence of recombinant purified human JAK2 (O60674 whole entry): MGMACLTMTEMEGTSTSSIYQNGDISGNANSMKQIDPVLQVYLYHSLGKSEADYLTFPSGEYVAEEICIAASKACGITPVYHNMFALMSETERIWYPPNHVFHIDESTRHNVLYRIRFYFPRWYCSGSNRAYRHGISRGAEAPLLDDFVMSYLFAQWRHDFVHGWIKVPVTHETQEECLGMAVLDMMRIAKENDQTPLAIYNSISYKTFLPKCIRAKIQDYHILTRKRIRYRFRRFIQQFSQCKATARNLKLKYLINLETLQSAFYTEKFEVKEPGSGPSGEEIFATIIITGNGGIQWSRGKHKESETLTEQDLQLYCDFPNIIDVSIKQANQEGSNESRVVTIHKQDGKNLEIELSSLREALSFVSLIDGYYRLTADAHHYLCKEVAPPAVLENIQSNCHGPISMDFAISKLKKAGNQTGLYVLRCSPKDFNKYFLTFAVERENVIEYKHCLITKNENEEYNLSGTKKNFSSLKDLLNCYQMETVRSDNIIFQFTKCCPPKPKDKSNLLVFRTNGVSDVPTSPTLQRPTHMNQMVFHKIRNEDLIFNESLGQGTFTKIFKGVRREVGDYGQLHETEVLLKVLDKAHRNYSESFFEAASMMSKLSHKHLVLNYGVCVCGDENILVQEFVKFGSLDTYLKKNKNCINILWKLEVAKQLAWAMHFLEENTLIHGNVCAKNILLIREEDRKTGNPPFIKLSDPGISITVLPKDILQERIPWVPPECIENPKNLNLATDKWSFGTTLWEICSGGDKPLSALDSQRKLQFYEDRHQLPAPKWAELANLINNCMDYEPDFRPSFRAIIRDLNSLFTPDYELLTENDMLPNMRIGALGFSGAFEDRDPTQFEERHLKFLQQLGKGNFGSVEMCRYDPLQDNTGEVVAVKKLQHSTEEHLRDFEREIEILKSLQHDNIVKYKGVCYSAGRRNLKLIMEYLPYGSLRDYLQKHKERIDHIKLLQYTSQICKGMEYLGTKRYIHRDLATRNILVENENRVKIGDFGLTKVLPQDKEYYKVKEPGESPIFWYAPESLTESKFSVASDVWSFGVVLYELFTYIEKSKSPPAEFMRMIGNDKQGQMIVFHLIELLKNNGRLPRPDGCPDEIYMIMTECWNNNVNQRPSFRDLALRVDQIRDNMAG
Sequence of recombinant purified human JAK1 (P23458 whole entry): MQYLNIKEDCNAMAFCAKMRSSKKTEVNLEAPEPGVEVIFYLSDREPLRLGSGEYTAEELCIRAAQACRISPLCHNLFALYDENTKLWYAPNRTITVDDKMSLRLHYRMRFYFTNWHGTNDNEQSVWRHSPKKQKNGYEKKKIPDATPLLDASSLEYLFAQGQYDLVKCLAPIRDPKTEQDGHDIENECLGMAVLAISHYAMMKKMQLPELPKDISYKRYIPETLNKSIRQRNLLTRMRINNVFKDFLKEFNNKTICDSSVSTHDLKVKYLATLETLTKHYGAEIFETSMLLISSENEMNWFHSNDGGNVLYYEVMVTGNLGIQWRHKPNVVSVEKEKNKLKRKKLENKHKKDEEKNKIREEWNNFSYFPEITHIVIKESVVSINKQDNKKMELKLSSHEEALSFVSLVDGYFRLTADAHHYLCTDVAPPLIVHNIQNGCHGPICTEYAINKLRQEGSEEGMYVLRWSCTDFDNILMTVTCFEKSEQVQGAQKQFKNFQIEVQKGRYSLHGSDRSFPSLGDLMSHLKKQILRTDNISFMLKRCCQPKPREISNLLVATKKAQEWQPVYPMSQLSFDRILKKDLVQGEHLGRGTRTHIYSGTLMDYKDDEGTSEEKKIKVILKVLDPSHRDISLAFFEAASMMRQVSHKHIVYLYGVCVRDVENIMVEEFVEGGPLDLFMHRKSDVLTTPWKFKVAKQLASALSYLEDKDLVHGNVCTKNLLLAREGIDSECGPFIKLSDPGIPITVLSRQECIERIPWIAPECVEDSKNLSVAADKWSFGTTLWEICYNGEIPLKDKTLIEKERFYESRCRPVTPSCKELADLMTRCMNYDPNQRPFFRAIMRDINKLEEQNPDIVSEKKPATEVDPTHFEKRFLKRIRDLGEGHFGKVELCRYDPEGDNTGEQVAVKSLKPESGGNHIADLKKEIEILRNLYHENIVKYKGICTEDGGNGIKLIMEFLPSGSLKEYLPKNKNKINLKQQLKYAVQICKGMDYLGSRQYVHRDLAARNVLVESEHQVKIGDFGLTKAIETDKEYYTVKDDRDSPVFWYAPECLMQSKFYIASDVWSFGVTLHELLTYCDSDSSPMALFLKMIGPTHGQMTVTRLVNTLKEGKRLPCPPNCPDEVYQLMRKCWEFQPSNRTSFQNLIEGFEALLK

Regarding `N#CCNC(=O)c1ccc(-c2ccnc(Nc3ccc(N4CCC(N5CCC6(CCC(=O)O6)CC5)CC4)cc3)n2)cc1` [Example 28, N-(cyanomethyl)-4-(2-((4-(4-(2-oxo-1-oxa-8-azaspiro[4.5]decan-8-yl)piperidin-1-yl)phenyl)amino)pyrimidin-4-yl)benzamide], the IC50 in assay [1] turned out to be 55 nM; in assay [2] it was 11 nM; in assay [3], 6 nM.
In the case of `N#CCNC(=O)c1ccc(-c2ccnc(Nc3ccc(N4CCN(C5CCOCC5)CC4)cc3)n2)cc1` [Example 15, N-(cyanomethyl)-4-(2-((4-(4-(tetrahydro-2H-pyran-4-yl)piperazin-1-yl)phenyl)amino)pyrimidin-4-yl)benzamide], the IC50 in assay [1] is 88 nM; in assay [2] it was 16 nM; in assay [3], 11 nM.
On the same counts, the results for `Cc1cnc(Nc2ccc(N3CCC(N4CCCC4=O)CC3)cc2)nc1-c1ccc(C(=O)NCC#N)cc1` [Example 41, N-(cyanomethyl)-4-(5-methyl-2-((4-(4-(2-oxopyrrolidin-1-yl)piperidin-1-yl)phenyl)amino)pyrimidin-4-yl)benzamide] are 10.7 nM, 0.6 nM and 2.5 nM.
Consider `N#CCNC(=O)c1ccc(-c2ccnc(Nc3ccc(N4CCN(C5=NCCN5)CC4)cc3)n2)cc1` [Example 33, N-(cyanomethyl)-4-(2-((4-(4-(4,5-dihydro-1H-imidazol-2-yl)piperazin-1-yl)phenyl)amino)pyrimidin-4-yl)benzamide], for which the results for the IC50 in assay [1], in assay [2] and in assay [3] were 54 nM, 20 nM and 11 nM, respectively.
On the same counts, the results for `Cc1cnc(Nc2ccc(N3CCC(N4CCC5(CCCO5)CC4)CC3)cc2)nc1-c1ccc(C(=O)NCC#N)cc1` [Example 42, 4-(2-((4-(4-(1-oxa-8-azaspiro[4.5]decan-8-yl)piperidin-1-yl)phenyl)amino)-5-methylpyrimidin-4-yl)-N-(cyanomethyl)benzamide] are 59 nM, 2.5 nM and 4.3 nM.
In the case of `CC(=O)N1C2CC1CN(C1CCN(c3ccc(Nc4nccc(-c5ccc(C(=O)NCC#N)cc5)n4)cc3)CC1)C2` [Example 39, 4-(2-((4-(4-(6-acetyl-3,6-diazabicyclo[3.1.1]heptan-3-yl)piperidin-1-yl)phenyl)amino)pyrimidin-4-yl)-N-(cyanomethyl)benzamide], the IC50 stood at 50.7 nM in assay [1] and 8.8 nM in assay [2].
On the same counts, the results for `N#CCNC(=O)c1ccc(-c2ccnc(Nc3ccc(N4CCC(N5CCOC5=O)CC4)cc3)n2)cc1` [Example 12, N-(cyanomethyl)-4-(2-((4-(4-(2-oxooxazolidin-3-yl)piperidin-1-yl)phenyl)amino)pyrimidin-4-yl)benzamide] are 78 nM and 25 nM.
As for `Cc1cnc(Nc2ccc(N3CCC(N4CCOCC4)CC3)cc2)nc1-c1ccc(C(=O)NCC#N)cc1` [Example 40, N-(cyanomethyl)-4-(5-methyl-2-((4-(4-morpholinopiperidin-1-yl)phenyl)amino)pyrimidin-4-yl)benzamide], the IC50 in assay [1] turned out to be 32 nM; in assay [2], 1.3 nM; in assay [3], 2.8 nM.
On the same counts, the results for `Cc1nnc(C2CCN(c3ccc(Nc4ncc(C)c(-c5ccc(C(=O)NCC#N)cc5)n4)cc3)CC2)o1` [Example 43, N-(cyanomethyl)-4-(5-methyl-2-((4-(4-(5-methyl-1,3,4-oxadiazol-2-yl)piperidin-1-yl)phenyl)amino)pyrimidin-4-yl)benzamide] are 52.3 nM, 1.2 nM and 2.6 nM.
On the same counts, the results for `N#CCNC(=O)c1ccc(-c2ccnc(Nc3ccc(N4CCC(N5CCNC5=O)CC4)cc3)n2)cc1` [Example 18, N-(cyanomethyl)-4-(2-((4-(4-(2-oxoimidazolidin-1-yl)piperidin-1-yl)phenyl)amino)pyrimidin-4-yl)benzamide] are 50 nM, 9 nM and 11 nM.
For `N#CCNC(=O)c1ccc(-c2ccnc(Nc3ccc(N4CCC(c5nnco5)CC4)cc3)n2)cc1` [Example 19, 4-(2-((4-(4-(1,3,4-oxadiazol-2-yl)piperidin-1-yl)phenyl)amino)pyrimidin-4-yl)-N-(cyanomethyl)benzamide], in that order: 40 nM, 10 nM and 7 nM.
As for `N#CCNC(=O)c1ccc(-c2ccnc(Nc3ccc(N4CCN(C5CCS(=O)(=O)C5)CC4)cc3)n2)cc1` (stereo not drawn) [Example 9, N-(cyanomethyl)-4-(2-((4-(4-(1,1-dioxidotetrahydrothiophen-3-yl)piperazin-1-yl)phenyl)amino)pyrimidin-4-yl)benzamide], the IC50 in assay [1] was determined as 40 nM; in assay [2], 14 nM; in assay [3] it was 8 nM.
On the same counts, the results for `N#CCNC(=O)c1ccc(-c2ccnc(Nc3ccc(N4CCN(C5CCS(=O)(=O)CC5)CC4)cc3)n2)cc1` [Example 7, N-(cyanomethyl)-4-(2-((4-(4-(1,1-dioxidotetrahydro-2H-thiopyran-4-yl)piperazin-1-yl)phenyl)amino)pyrimidin-4-yl)benzamide] are 62 nM, 14 nM and 12 nM.
For `N#CCNC(=O)c1ccc(-c2ccnc(Nc3ccc(N4CCC(N5CC6OCCOC6C5)CC4)cc3)n2)cc1` (stereo not drawn) [Example 27, N-(cyanomethyl)-4-(2-((4-(4-(tetrahydro-2H-[1,4]dioxino[2,3-c]pyrrol-6(3H)-yl)piperidin-1-yl)phenyl)amino)pyrimidin-4-yl)benzamide], in that order: 49 nM, 10 nM and 5 nM.
For `COc1nnc(C2CCN(c3ccc(Nc4nccc(-c5ccc(C(=O)NCC#N)cc5)n4)cc3)CC2)o1` [Example 31, N-(cyanomethyl)-4-(2-((4-(4-(5-methoxy-1,3,4-oxadiazol-2-yl)piperidin-1-yl)phenyl)amino)pyrimidin-4-yl)benzamide], the results for the IC50 in assay [1], in assay [2] and in assay [3] were 74 nM, 20 nM and 17 nM, respectively.
For `N#CCNC(=O)c1ccc(-c2ccnc(Nc3ccc(N4CCC(N5CCCC5)C4)cc3)n2)cc1` (stereo not drawn) [Example 6, 4-(2-((4-([1,3′-Bipyrrolidin]-1′-yl)phenyl)amino)pyrimidin-4-yl)-N-(cyanomethyl)benzamide], in that order: 155 nM, 16 nM and 19 nM.
In the case of `Cc1nnc(N2CCN(c3ccc(Nc4nccc(-c5ccc(C(=O)NCC#N)cc5)n4)cc3)CC2)o1` [Example 36, N-(cyanomethyl)-4-(2-((4-(4-(5-methyl-1,3,4-oxadiazol-2-yl)piperazin-1-yl)phenyl)amino)pyrimidin-4-yl)benzamide], the IC50 was 46.9 nM in assay [1] and 9.2 nM in assay [2].
In the case of `N#CCNC(=O)c1ccc(-c2ccnc(Nc3ccc(N4CCC(N5CC6OCCOC6C5)C4)cc3)n2)cc1` (stereo not drawn) [Example 35, N-(cyanomethyl)-4-(2-((4-(3-(tetrahydro-2H-[1,4]dioxino[2,3-c]pyrrol-6(3H)-yl)pyrrolidin-1-yl)phenyl)amino)pyrimidin-4-yl)benzamide], the IC50 in assay [1] worked out at 138 nM; in assay [2], 15 nM; in assay [3] it was 21 nM.
